Reference: US10953027B2, “Active agents and methods of their use for the treatment of metabolic disorders and nonalcoholic fatty liver disease” (Flagship Pioneering Innovations V, Inc., priority 2018, dated 2021)

Assays:
[1] = Assay 2. Stability in Simulated Intestinal Fluid (SIF); format: in vitro ADME; details: 1 μM, 37° C., SIF pH 6.7 with pancreatin
Summary of the method: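 Degradation rate measured by LC/MS after acetonitrile quench of timed aliquots, starting at T0. Test compound 1 μM in simulated intestinal fluid (pH 6.7 phosphate buffer, FaSSIF powder, pancreatin), shaken at 37 °C.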

[2] = Assay 3. Fecal Incubation Stability; format: in vitro ADME; details: 1 or 10 μM, human fecal slurry, anaerobic
[3] = tested on: Male FATZO mice; test: In vivo FATZO DM2/obesity study (Example 5); details: in HFD ad libitum, after 28 days; blood glucose 0-120 minutes
Method: Male FATZO mice (Crown Bio) of 11-12 weeks old were selected for Diabetes Mellitus Type 2 (DM2) and obesity study. Mice were randomized into 9 groups based on body weight and blood glucose level as shown below. Compounds were administered in high fat diet (HFD: D12492) and provided to mice ad libitum until study termination. Body weight was recorded at the baseline and then twice weekly thereafter. Blood glucose level was measured at 0, 15, 30, 60, 90, and 120 minutes at the end of the study.

[4] = tested on: C57BL/6 DIO mice; test: DIO animal model of NAFLD/NASH in young mice (Example 16); format: in vivo; set-up: OGTT: unit not given beside the values; details: ad libitum in HFD; for % Weight change: 12 weeks; for OGTT: Day 82, 2 g/kg glucose PO; for OGTT / % HbA1c: ctrl HFD; for % Difference compared to ctrl: weight change vs HFD ctrl
Text: Species (number, sex, age/weight): C57BL/6 DIO mice (120+10 spares, male, ˜18 weeks of age) from Jackson Laboratories, Stock #380050. Note: 18 week old DIO mice sent sent with a minimum body weight of 39 grams. Spare animals may be used to replace study animals, as required, euthanized after completion of dose administration or transferred to Testing Facility Docket 07-12.
Cage Side Observations (Animal Health Checks): Cage side animal's health checks will be performed at least once daily to check for general health, mortality and moribundity. Clinical Observations: Clinical observations will be performed per exception. Body Weights: Body weights for all animals will be recorded prior to Day 1 and at least twice weekly thereafter, including prior to necropsy ([…]).
Dose Administration: Dosing for Groups 3-8 will be provided ad libitum in the diet. Dosing for Groups 9 (Saline) and 10 (Semaglutide at 123.4 μg/kg) in a 5 mL/kg volume, will begin on Day 1, and be performed 3 times weekly for 12 weeks by SC administration. Residual Test Article: All residual high fat diets will be frozen at nominally −20° C., and at the end of the study, several pellets of the diets for groups 2-9 (in 50-ml conical tubes) will be shipped to Sponsor, and the rest will be discarded. Residual control diets (group 1) will be stored ambient, and at the end of the study, several pellets in a 50 mL conical tube will be shipped to Sponsor and the rest is discarded. Residual test material for Group 10 will be stored at nominally −70° C., and at the end of the study, an aliquot of test material will be shipped to Sponsor, and the rest will be discarded.
(§1) Oral Glucose Tolerance Test (oGTT) On Day 82 (+/−2 days) an oGTT will be performed. Following an approximate 4 hour fast, 2 g/kg glucose (50% Dextrose diluted in sterile water for injection to a concentration of 0.4 g/mL) will be administered at 5 mL/kg via oral gavage (PO). Blood will be collected pre-glucose challenge (t=0) and at t=15, 30, 60, 90, and 120 minutes following the glucose challenge. Whole blood glucose levels will be evaluated at all time points using a handheld glucometer and will be reported in the Data Submission. This will be scheduled on a Tuesday or Thursday to avoid Group 9/10 dosing days.
as §1, with “Submission.” for “Submission. This will be scheduled on a Tuesday or Thursday to avoid Group 9/10 dosing days.”

CC(=O)Oc1cc(OC(C)=O)c2c(c1)O[C@H](c1cc(OC(C)=O)c(OC(C)=O)c(OC(C)=O)c1)[C@H](OC(=O)c1cc(OC(C)=O)c(OC(C)=O)c(OC(C)=O)c1)C2 [Compound 4, [(2R,3R)-5,7-diacetoxy-2-(3,4,5-triacetoxyphenyl)chroman-3-yl] 3,4,5-triacetoxybenzoate]
Assay 2 (SIF) (% @ Remaining 4 hours) [1]: A (A: <25% of the tested compound remaining)
Assay 3 (% Remaining at 24 h) [2]: A (A: <25% of the tested compound remaining)
OGTT (AUC) [3]: 59443
% Weight change [4]: 19%
OGTT [4]: 25072
% HbA1c [4]: 4.89%
% Difference compared to ctrl [4]: −4%

CC(=O)Oc1cc(OC(C)=O)c2c(=O)c(OC(C)=O)c(-c3ccc(OC(C)=O)c(OC(C)=O)c3)oc2c1 [Compound 14, [2-acetoxy-4-(3,5,7-triacetoxy-4-oxo-chromen-2-yl)phenyl] acetate]
Assay 2 (SIF) (% @ Remaining 4 hours) [1]: A (A: <25% of the tested compound remaining)
OGTT (AUC) [3]: 65323
% Weight change [4]: 16%
OGTT [4]: 32591
% HbA1c [4]: 6.93%
% Difference compared to ctrl [4]: −7%

CC(=O)O[C@H]1OC[C@H](OC(C)=O)[C@H](OC(C)=O)[C@H]1OC(C)=O [Compound 53, (2R,3R,4S,5S)-tetrahydro-2H-pyran-2,3,4,5-tetrayl Tetraacetate]
Assay 2 (SIF) (% @ Remaining 4 hours) [1]: A (A: <25% of the tested compound remaining)
Assay 3 (% Remaining at 24 h) [2]: A (A: <25% of the tested compound remaining)
% Weight change [4]: 10%
OGTT [4]: 25779
% HbA1c [4]: 4.35%
% Difference compared to ctrl [4]: −13%
